Measured values: patent US6528524B2, “Pharmaceutical compositions containing cinchonine dichlorhydrate” (Debiopharm SA, priority 1997, dated 2003)
Where a name gives a salt, the structure may show the parent alone. Read-outs that look alike come from different tables or passages of the source.

How the values were obtained:
[1] = Stability of cinchonine dihydrochloride in aqueous solution (NMR spectra day 0 vs day 30); format: physicochemical; details: aqueous solution kept at ambient temperature and in the light for 30 days
Description: The ^1H and ^13C spectra were built up using samples of 100 mg and 20 mg respectively in 0.5 ml of deuterated methanol.
The NMR spectra were obtained using a Bruker DRX 500 spectrometer fitted with a so-called “reversible” sensor.
The aqueous solution was kept at ambient temperature and in the light for 30 days. After 30 days, the NMR spectra were recorded in the same way as above.

[2] = In vivo bioavailability / pharmacokinetic study in Beagle dogs; design: C20 min: unit not given here; details: for C20 min / T1/2 a / half-life: dose 50 mg/kg; for C20 min: blood concentration 20 minutes after administration; for T1/2 a / half-life: absorption; for half-life: Beagle, dog, blood, read-out: T1/2 a
Description: These tests were performed in four “Beagle” dogs, two of which were male and two female.
Each dog received, on day 1, a dose of 50 mg per kg of cinchonine dihydrochloride and, on day 8, an equivalent dose of cinchonine monohydrochloride. Blood samples were taken at regular intervals after each administration.

[3] = cited from earlier work
[4] = Beagle dog F2 (female), dihydrochloride
[5] = Beagle dog M1 (male), dihydrochloride
[6] = Beagle dog F1 (female), monohydrochloride
[7] = Beagle dog F2 (female), monohydrochloride
[8] = Beagle dog M1 (male), monohydrochloride
[9] = Beagle dog M2 (male), monohydrochloride

## C=C[C@H]1C[N@@]2CC[C@H]1C[C@@H]2[C@@H](O)c1ccnc2ccccc12 [CDH, cinchonine dihydrochloride]
[1]; listed as Cinchonine dihydrochloride
  Stability (NMR spectra on day 0 and day 30): remarkable stability
[1]; listed as cinchonine dihydrochloride
  Stability (NMR spectra on day 0 and day 30): unchanged
[2]; Beagle dog F1 (female), dihydrochloride
  C20 min: 2.05
[2]; [4]
  T1/2 a: 0.34 min
  C20 min: 3.68
[2]; [5]
  T1/2 a: 0.26 min
  C20 min: 0.23
[2]; Beagle dog M2 (male), dihydrochloride
  C20 min: 2.1
[2]; Beagle dogs, 50 mg/kg
  absorption time, compared with cinchonine monohydrochloride: greater than that of cinchonine monohydrochloride
  blood concentration 20 minutes after administration, compared with cinchonine monohydrochloride: greater than that of cinchonine monohydrochloride
[2]; female, 50 mg/kg, Beagle dog F1 (female)
  half-life: 0.1 min
[2]; male, 50 mg/kg, Beagle dog M2 (male)
  half-life: 0.39 min

## C=C[C@H]1C[N@@]2CC[C@H]1C[C@@H]2[C@@H](O)c1ccnc2ccccc12 [CMH, cinchonine monohydrochloride, reference compound]
[2]; [6]
  T1/2 a: 0.05 min
  C20 min: 1.04
[2]; [7]
  T1/2 a: 0.11 min
  C20 min: 1.66
[2]; [8]
  T1/2 a: 0.06 min
  C20 min: 0
[2]; [9]
  T1/2 a: 0.24 min
  C20 min: 0.25

## C=C[C@H]1C[N@@]2CC[C@H]1C[C@@H]2[C@@H](O)c1ccnc2ccccc12 [cinchonine]
[3]
  solubility in water: very sparingly soluble in water
